{
  "source": "patent US11278561B2",
  "about": "“Combination treatment for hematological cancers” (Geron Corporation, priority 2016, dated 2022)",
  "format_in_all_cases": "cell-based",
  "key": {"[1]": {"tested_on": "MOLM-13 cells", "experiment": "Annexin V / Propidium Iodide flow cytometry apoptosis assay in MOLM-13", "parameters": "key to Excess over HSA / Excess over BLISS: excess = combination minus HSA/Bliss expected, in % apoptotic cells", "details": "for Loewe Excess: ABT-199 nM: r7 1000, r8 500, r9 100, r10 20, r11 5, r12 1, r13 0.2, r14 0.04, r15 0; for Excess over HSA: MOLM-13, 96 hours, ABT-199 0 nM, r7 Mismatch 50 μM, r8 Mismatch 25 μM, r9 Non-complimentary 50 μM, r10 Non-complimentary 25 μM", "description": "(§1) AML tumor cells KG-1 (ATCC #CCL-246) and MOLM-13 (DSMZ #ACC554) were plated at a density of ˜20,000 cells per well on 96-well polystyrene U-bottom tissue culture plates (Corning catalog #353777) in RPMI-1640 (ThermoFisher catalog #11875-085) supplemented with 10% fetal bovine serum (ThermoFisher catalog #16140-089) and 1% penicillin/streptomycin antibiotic cocktail (ThermoFisher catalog 15140-122) and grown in a 37° C. incubator under humidified 5% CO2 atmosphere.\n(§2) At 48 and 96 hours, cells were measured for healthy, early apoptotic and apoptotic populations with an Annexin V (interior cell membrane stain) plus Propidium Iodide (PI, DNA binding dye) flow cytometry assay kit (BioLegend catalog 640914). Annexin V detects the externalization of phosphatidylserine in apoptotic cells using recombinant annexin V conjugated to green-fluorescent FITC dye and dead cells using Propidium iodide (PI). Propidium iodide stains necrotic cells with red fluorescence. After treatment with both probes, early apoptotic cells show green fluorescence, apoptotic (dead) cells show red and green fluorescence, and live cells show little or no fluorescence. […] Cells were stained for 30 minutes at 4° C. in the dark, followed by 3× washes with PBS and suspension in FACs Stain Buffer (BD catalog 554657) prior to interrogation on a BD FACs Canto flow cytometer for forward scatter, side scatter, FITC, and PE channels. […] The percentage of apoptotic cells (double labeled) was used to calculate combination effects using both the Highest Single Agent (HSA) and Bliss additivity models (J Tang et al. Frontiers in Pharmacology. 2015; 6 (181)).\n(§3) Using the HSA model, the cytotoxic effect of the combined condition (“C”) was compared to the effect generated by each of the single agent controls (“A” or “B”) for the respective dose in the combination: Excess over HSA=C−A (if A>B) or C−B (if A<B)\n(§4) The Bliss model performs a similar comparison, but instead of the highest effect of single agent, the Bliss model subtracts from the combination a value equal to the sum of each single agent minus their product: Excess over Bliss=C−[(A+B)−(A*B)]\nTreated cells were analyzed by Flow cytometry for Annexin V and Propidium Iodide staining as described previously. Events gated in the apoptotic population (Annexin V+/Propidium Iodide+) were used to determine synergy scores for the combination matrix. Combination data analysis was generated by the Horizon Chalice™ Analyzer Software (Horizon Discovery Group, Cambridge, UK). […] Mismatch and non-complimentary controls were not utilized in this experiment.\nCombination conditions undergo isobolar analysis to generate a combination index and graphically represent the behavior of a combination with synergistic pairs falling below the isobologram and antagonistic falling above it (additive combinations would be expected to fall on the line). The Horizon Chalice™ Analyzer Software additionally provides a synergy score, with values greater than 1 indicating synergy."}, "[2]": {"tested_on": "KG-1 cells", "experiment": "Annexin V / Propidium Iodide flow cytometry apoptosis assay in KG-1", "parameters": "key to Excess over HSA / Excess over BLISS: excess in % apoptotic (Annexin V/PI double-labeled) cells over HSA/Bliss", "details": "ABT-199 0 nM, r7 Mismatch 50 μM, r8 Mismatch 25 μM, r9 Non-complimentary 50 μM, r10 Non-complimentary 25 μM", "description": "as §1, §2, §3, §4"}, "[3]": {"tested_on": "MOLM-13 cells", "experiment": "Annexin V / Propidium Iodide flow cytometry apoptosis assay in MOLM-13", "parameters": "key to Excess over BLISS: Excess over Bliss = C−[(A+B)−(A*B)], % apoptotic cells; key to Excess over HSA: excess = combination minus HSA/Bliss expected, in % apoptotic cells", "details": "for Loewe Excess: MOLM-13, 48 hour treatment, ABT-199 nM: r7 1000, r8 500, r9 100, r10 20, r11 5, r12 1, r13 0.2, r14 0.04, r15 0; for Excess over BLISS / Excess over HSA: ABT-199 0 nM, r7 Mismatch 50 μM, r8 Mismatch 25 μM, r9 Non-complimentary 50 μM, r10 Non-complimentary 25 μM"}},
  "note": "{PalmAG} = palmitoyl amide conjugated through an aminoglycerol linker to the 5'-thiophosphate; {PalmN} = palmitoyl amide conjugated through the terminal 3'-amino group; [NPS] = N3'→P5' thiophosphoramidate internucleoside linkage; {NH2} = amino group",
  "data": [
    {"substance": "Mismatch: control oligonucleotide 5′-R-TAGGTGTAAGCAA-NH2-3′ (SEQ ID NO: 2), palmitoyl amide conjugated NPS-linked oligonucleotide (all [NPS], 5' {PalmAG}, 3' {NH2}, sugars by position and methylation of C not given here)", "values": [
      {"measurement": "Loewe Excess", "setting": "[1]; MOLM-13, 48 hour treatment, Mismatch 1 μM", "value": 4},
      {"measurement": "Loewe Excess", "setting": "[1]; MOLM-13, 48 hour treatment, Mismatch 5 μM", "value": 2},
      {"measurement": "Loewe Excess", "setting": "[1]; MOLM-13, 48 hour treatment, Mismatch 25 μM", "value": 1},
      {"measurement": "Loewe Excess", "setting": "[1]; MOLM-13, 48 hour treatment, Mismatch 50 μM", "value": 0},
      {"measurement": "Loewe Excess", "setting": "[1]; MOLM-13, 48 hour treatment, Mismatch 75 μM", "value": 0},
      {"measurement": "Loewe Excess", "setting": "[1]; MOLM-13, 96 hour treatment, Mismatch 1 μM", "value": 1},
      {"measurement": "Loewe Excess", "setting": "[1]; MOLM-13, 96 hour treatment, Mismatch 5 μM", "value": 0},
      {"measurement": "Loewe Excess", "setting": "[1]; MOLM-13, 96 hour treatment, Mismatch 10 μM", "value": "−1"},
      {"measurement": "Loewe Excess", "setting": "[1]; MOLM-13, 96 hour treatment, Mismatch 25 μM", "value": "−2"},
      {"measurement": "Loewe Excess", "setting": "[1]; MOLM-13, 96 hour treatment, Mismatch 50 μM", "value": "−1"},
      {"measurement": "Loewe Excess", "setting": "[1]; MOLM-13, 96 hour treatment, Mismatch 75 μM", "value": 1},
      {"measurement": "Excess over HSA", "setting": "[1]", "value": 0},
      {"measurement": "Excess over BLISS", "setting": "[2]; KG-1, 48 hours", "value": 0},
      {"measurement": "Excess over HSA", "setting": "[2]; KG-1, 48 hours", "value": 0},
      {"measurement": "Excess over BLISS", "setting": "[2]; KG-1, 96 hours", "value": 0},
      {"measurement": "Excess over HSA", "setting": "[2]; KG-1, 96 hours", "value": 0},
      {"measurement": "Loewe Excess", "setting": "[3]; Mismatch 10 μM", "value": "−1"},
      {"measurement": "Excess over BLISS", "setting": "[3]; MOLM-13, 48 hours", "value": 0},
      {"measurement": "Excess over HSA", "setting": "[3]; MOLM-13, 48 hours", "value": 0},
      {"measurement": "Excess over BLISS", "setting": "[3]; MOLM-13, 96 hours", "value": 0}
    ]},
    {"substance": "Non-complimentary: control oligonucleotide 5′-AACAGATTGGGAT-R-3′ (SEQ ID NO: 3), palmitoyl amide on the terminal 3′ amino group of an NPS oligonucleotide (all [NPS], 3' {PalmN}, sugars by position and methylation of C not given here)", "values": [
      {"measurement": "Loewe Excess", "setting": "[1]; MOLM-13, 48 hour treatment, Non-Complimentary 1 μM", "value": 6},
      {"measurement": "Loewe Excess", "setting": "[1]; MOLM-13, 48 hour treatment, Non-Complimentary 10 μM", "value": "−2"},
      {"measurement": "Loewe Excess", "setting": "[1]; MOLM-13, 48 hour treatment, Non-Complimentary 50 μM", "value": "−2"},
      {"measurement": "Loewe Excess", "setting": "[1]; MOLM-13, 48 hour treatment, Non-Complimentary 75 μM", "value": 1},
      {"measurement": "Loewe Excess", "setting": "[1]; MOLM-13, 96 hour treatment, Non-Complimentary 1 μM", "value": 1},
      {"measurement": "Loewe Excess", "setting": "[1]; MOLM-13, 96 hour treatment, Non-Complimentary 5 μM", "value": 0},
      {"measurement": "Loewe Excess", "setting": "[1]; MOLM-13, 96 hour treatment, Non-Complimentary 10 μM", "value": "−1"},
      {"measurement": "Loewe Excess", "setting": "[1]; MOLM-13, 96 hour treatment, Non-Complimentary 25 μM", "value": "−1"},
      {"measurement": "Loewe Excess", "setting": "[1]; MOLM-13, 96 hour treatment, Non-Complimentary 50 μM", "value": "−1"},
      {"measurement": "Loewe Excess", "setting": "[1]; MOLM-13, 96 hour treatment, Non-Complimentary 75 μM", "value": 1},
      {"measurement": "Excess over HSA", "setting": "[1]", "value": 0},
      {"measurement": "Excess over BLISS", "setting": "[2]; KG-1, 48 hours", "value": 0},
      {"measurement": "Excess over HSA", "setting": "[2]; KG-1, 48 hours", "value": 0},
      {"measurement": "Excess over BLISS", "setting": "[2]; KG-1, 96 hours", "value": 0},
      {"measurement": "Excess over HSA", "setting": "[2]; KG-1, 96 hours", "value": 0},
      {"measurement": "Loewe Excess", "setting": "[3]; Non-Complimentary 5 μM", "value": "−1"},
      {"measurement": "Loewe Excess", "setting": "[3]; Non-Complimentary 25 μM", "value": "−1"},
      {"measurement": "Excess over BLISS", "setting": "[3]; MOLM-13, 48 hours", "value": 0},
      {"measurement": "Excess over HSA", "setting": "[3]; MOLM-13, 48 hours", "value": 0},
      {"measurement": "Excess over BLISS", "setting": "[3]; MOLM-13, 96 hours", "value": 0}
    ]}
  ]
}
